Tests used:
Assay type in all cases: cell-based
Conditions in all cases: 24 hours of compound treatment, 50 nM and 500 nM
IKZF1 = target: T1, IKZF1 (Homo sapiens, UniProt Q13422+Q96SW2); test: Western-blot assay, substrate protein degradation in hPBMCs: IKZF1
T1 construct: effects of the compounds of the present disclosure on the expression of target proteins in cells; endogenous in cells; host or cells: human PBMCs (hPBMCs)

IKZF2 = target: T2, IKZF2 (Homo sapiens, UniProt Q96SW2+Q9UKS7); test: Western-blot assay, substrate protein degradation in hPBMCs: IKZF2
T2 construct: effects of the compounds of the present disclosure on the expression of target proteins in cells; endogenous in cells; host or cells: human PBMCs (hPBMCs)
T2 sequence (Q9UKS7 whole entry): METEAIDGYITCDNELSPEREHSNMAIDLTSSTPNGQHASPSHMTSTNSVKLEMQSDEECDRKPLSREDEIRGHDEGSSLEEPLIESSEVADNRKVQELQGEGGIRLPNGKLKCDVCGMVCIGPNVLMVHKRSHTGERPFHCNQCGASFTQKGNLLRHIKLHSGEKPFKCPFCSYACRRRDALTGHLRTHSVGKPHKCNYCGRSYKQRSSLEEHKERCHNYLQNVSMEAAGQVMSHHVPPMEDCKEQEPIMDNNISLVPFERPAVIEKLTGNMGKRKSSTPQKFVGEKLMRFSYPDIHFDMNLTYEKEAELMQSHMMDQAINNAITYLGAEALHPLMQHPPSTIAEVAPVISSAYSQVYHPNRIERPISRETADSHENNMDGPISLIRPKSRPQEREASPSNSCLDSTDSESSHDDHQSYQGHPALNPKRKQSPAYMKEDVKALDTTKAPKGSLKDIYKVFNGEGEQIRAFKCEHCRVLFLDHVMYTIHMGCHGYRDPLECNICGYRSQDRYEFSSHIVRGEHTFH
T2 sequence (Q96SW2 whole entry): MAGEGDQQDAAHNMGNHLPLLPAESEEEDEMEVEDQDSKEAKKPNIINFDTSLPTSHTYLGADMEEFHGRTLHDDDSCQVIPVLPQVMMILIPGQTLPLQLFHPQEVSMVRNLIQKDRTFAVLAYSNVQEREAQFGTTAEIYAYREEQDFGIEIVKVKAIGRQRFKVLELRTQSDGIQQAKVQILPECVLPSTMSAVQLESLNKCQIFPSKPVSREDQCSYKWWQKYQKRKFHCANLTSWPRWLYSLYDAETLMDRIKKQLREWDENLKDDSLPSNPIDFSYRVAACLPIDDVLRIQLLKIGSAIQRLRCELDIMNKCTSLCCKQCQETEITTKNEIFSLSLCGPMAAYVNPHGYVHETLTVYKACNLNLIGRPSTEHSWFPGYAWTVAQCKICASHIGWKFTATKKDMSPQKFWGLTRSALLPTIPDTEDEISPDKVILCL
T2 sequence (Q16531 whole entry partner): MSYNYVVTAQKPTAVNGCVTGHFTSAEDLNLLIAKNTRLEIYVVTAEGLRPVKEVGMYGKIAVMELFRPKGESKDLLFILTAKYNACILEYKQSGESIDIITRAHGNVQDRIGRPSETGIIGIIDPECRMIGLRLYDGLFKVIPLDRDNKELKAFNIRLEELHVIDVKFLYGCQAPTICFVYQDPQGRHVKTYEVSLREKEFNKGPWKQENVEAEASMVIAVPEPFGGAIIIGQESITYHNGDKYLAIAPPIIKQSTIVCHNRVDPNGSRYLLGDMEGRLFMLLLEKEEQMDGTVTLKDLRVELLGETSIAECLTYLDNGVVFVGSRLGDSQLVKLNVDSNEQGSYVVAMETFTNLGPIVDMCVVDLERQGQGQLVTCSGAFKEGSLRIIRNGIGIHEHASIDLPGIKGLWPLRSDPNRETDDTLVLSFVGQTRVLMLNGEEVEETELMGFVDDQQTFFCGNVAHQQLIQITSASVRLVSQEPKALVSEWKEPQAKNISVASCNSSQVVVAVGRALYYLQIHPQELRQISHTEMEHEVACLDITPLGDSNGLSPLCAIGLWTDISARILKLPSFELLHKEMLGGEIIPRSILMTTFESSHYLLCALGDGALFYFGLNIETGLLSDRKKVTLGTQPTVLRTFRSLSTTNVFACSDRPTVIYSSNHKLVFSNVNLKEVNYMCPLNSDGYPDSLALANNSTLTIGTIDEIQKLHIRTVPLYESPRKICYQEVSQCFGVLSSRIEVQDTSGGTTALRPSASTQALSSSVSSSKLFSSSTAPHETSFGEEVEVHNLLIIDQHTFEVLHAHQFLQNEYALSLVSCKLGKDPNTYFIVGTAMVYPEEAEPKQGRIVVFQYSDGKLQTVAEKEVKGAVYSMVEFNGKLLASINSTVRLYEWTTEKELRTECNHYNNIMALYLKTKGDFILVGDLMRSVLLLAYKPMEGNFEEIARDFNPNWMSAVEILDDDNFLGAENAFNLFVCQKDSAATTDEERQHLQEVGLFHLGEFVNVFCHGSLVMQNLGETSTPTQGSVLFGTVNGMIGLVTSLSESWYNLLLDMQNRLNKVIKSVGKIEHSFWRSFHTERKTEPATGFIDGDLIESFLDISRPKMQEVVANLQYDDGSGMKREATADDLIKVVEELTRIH

WEE1 = target: T3, WEE1 (Homo sapiens, UniProt P30291+Q96SW2); test: Western-blot assay, substrate protein degradation in hPBMCs: WEE1
T3 construct: effects of the compounds of the present disclosure on the expression of target proteins in cells; endogenous in cells; host or cells: human PBMCs (hPBMCs)

GSPT1 = target: T4, GSPT1 (Homo sapiens, UniProt P15170+Q96SW2); test: Western-blot assay, substrate protein degradation in hPBMCs: GSPT1
T4 construct: effects of the compounds of the present disclosure on the expression of target proteins in cells; endogenous in cells; host or cells: human PBMCs (hPBMCs)
T4 sequence (P15170 whole entry): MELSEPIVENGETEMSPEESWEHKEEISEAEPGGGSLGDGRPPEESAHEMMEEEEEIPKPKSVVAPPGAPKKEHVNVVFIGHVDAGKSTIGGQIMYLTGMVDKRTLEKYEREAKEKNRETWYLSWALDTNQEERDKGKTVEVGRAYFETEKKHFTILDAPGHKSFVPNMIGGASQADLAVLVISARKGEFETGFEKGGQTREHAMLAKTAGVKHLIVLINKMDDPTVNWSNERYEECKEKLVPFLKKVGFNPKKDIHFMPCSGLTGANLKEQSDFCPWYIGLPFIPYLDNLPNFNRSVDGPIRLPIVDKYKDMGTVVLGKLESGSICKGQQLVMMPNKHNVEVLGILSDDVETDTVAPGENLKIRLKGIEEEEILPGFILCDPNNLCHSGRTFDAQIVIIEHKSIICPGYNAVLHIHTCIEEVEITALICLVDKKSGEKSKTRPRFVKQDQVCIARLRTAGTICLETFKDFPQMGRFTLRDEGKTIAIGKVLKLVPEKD
T4 sequence (Q96SW2 whole entry): as the sequence (Q96SW2 whole entry) above
T4 sequence (Q16531 whole entry partner): as the sequence (Q16531 whole entry partner) above

IKZF3 = target: T5, IKZF3 (Homo sapiens, UniProt Q96SW2+Q9UKT9); test: Western-blot assay, substrate protein degradation in hPBMCs: IKZF3
T5 construct: effects of the compounds of the present disclosure on the expression of target proteins in cells; endogenous in cells; host or cells: human PBMCs (hPBMCs)
T5 sequence (Q9UKT9 whole entry): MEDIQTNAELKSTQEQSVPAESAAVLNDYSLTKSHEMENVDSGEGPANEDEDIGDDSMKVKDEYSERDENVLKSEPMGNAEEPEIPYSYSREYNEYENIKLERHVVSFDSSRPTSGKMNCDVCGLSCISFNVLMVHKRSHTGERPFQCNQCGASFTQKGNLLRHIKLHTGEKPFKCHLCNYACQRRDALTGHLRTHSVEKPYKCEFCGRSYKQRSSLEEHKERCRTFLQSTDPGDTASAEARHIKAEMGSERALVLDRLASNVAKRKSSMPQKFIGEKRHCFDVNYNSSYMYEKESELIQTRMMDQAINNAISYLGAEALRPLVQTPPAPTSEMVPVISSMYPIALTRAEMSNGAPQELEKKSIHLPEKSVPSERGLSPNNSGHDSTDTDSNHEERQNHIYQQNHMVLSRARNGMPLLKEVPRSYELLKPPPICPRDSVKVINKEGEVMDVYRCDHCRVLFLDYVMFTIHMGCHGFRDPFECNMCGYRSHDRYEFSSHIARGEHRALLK
T5 sequence (Q96SW2 whole entry): as the sequence (Q96SW2 whole entry) above
T5 sequence (Q16531 whole entry partner): as the sequence (Q16531 whole entry partner) above

CK1α = target: T6, CK1α (Homo sapiens, UniProt P48729+Q96SW2); test: Western-blot assay, substrate protein degradation in hPBMCs: CK1α
T6 construct: effects of the compounds of the present disclosure on the expression of target proteins in cells; endogenous in cells; host or cells: human PBMCs (hPBMCs)
T6 sequence (P48729 whole entry): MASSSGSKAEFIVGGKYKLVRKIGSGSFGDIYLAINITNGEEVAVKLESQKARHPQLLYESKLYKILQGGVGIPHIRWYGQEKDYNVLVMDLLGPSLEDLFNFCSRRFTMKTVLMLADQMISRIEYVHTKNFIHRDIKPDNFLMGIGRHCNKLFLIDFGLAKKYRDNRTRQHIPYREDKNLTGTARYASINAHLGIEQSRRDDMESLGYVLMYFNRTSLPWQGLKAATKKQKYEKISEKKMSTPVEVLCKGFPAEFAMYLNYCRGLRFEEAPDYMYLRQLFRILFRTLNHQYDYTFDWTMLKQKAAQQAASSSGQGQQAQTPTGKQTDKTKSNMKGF
T6 sequence (Q96SW2 whole entry): as the sequence (Q96SW2 whole entry) above
T6 sequence (Q16531 whole entry partner): as the sequence (Q16531 whole entry partner) above

T1 sequence (Q13422 whole entry): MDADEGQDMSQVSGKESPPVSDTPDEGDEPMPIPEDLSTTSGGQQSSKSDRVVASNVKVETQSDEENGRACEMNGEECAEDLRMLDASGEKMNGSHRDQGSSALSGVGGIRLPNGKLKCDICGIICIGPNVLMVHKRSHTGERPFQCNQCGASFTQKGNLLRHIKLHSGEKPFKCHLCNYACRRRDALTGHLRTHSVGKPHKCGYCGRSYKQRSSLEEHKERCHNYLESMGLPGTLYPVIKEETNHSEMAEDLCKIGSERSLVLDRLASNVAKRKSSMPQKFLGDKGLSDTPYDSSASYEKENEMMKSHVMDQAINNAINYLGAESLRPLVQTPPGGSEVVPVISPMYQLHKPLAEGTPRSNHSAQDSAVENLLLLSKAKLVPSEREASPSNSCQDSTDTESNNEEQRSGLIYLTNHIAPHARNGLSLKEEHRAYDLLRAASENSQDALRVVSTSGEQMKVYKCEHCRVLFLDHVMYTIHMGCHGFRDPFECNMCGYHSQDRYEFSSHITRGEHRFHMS
T1 sequence (Q96SW2 whole entry): as the sequence (Q96SW2 whole entry) above
T1 sequence (Q16531 whole entry partner): as the sequence (Q16531 whole entry partner) above

Structure (SMILES)	substrate protein remaining % IKZF1 (IKZF1)	substrate protein remaining % IKZF2 (IKZF2)	substrate protein remaining % WEE1 (WEE1)	substrate protein remaining % GSPT1 (GSPT1)	substrate protein remaining % IKZF3 (IKZF3)	substrate protein remaining % CK1α (CK1α)
O=C1CCN(N2Cc3cc(CN4CCC(c5c[nH]c6ncccc56)CC4)ccc3C2=O)C(=O)N1 [GT-07576, 1-(5-((4-(1H-pyrrolo[2,3-b]pyridin-3-yl)piperidin-1-yl)methyl)-1-oxoisoindolin-2-yl)dihydropyrimidine-2,4(1H,3H)-dione]	A (0% ≤ substrate protein remaining % ≤ 80%)	A (0% ≤ substrate protein remaining % ≤ 80%)	A (0% ≤ substrate protein remaining % ≤ 80%)	A (0% ≤ substrate protein remaining % ≤ 80%)	B (80%< substrate protein remaining %≤ 100%)	A (0% ≤ substrate protein remaining % ≤ 80%)
O=C1CCN(N2Cc3cc(CN4CCC(n5c(=O)[nH]c6cc(F)ccc65)CC4)ccc3C2=O)C(=O)N1 [GT-07579, 1-(5-((4-(5-fluoro-2-oxo-2,3-dihydro-1H-benzo[d]imidazol-1-yl)piperidin-1-yl)methyl)-1-oxoisoindolin-2-yl)dihydropyrimidine-2,4(1H,3H)-dione]	A (0% ≤ substrate protein remaining % ≤ 80%)	A (0% ≤ substrate protein remaining % ≤ 80%)	A (0% ≤ substrate protein remaining % ≤ 80%)	A (0% ≤ substrate protein remaining % ≤ 80%)	B (80%< substrate protein remaining %≤ 100%)	B (80%< substrate protein remaining %≤ 100%)
O=C1CCN(N2C(=O)c3ccc(CN4CC=C(c5c[nH]c6cc(F)ccc56)CC4)cc3C2=O)C(=O)N1 [GT-07580, 2-(2,4-dioxotetrahydropyrimidin-1(2H)-yl)-5-((4-(6-fluoro-1H-indol-3-yl)-3,6-dihydropyridin-1(2H)-yl)methyl)isoindoline-1,3-dione]	A (0% ≤ substrate protein remaining % ≤ 80%)	A (0% ≤ substrate protein remaining % ≤ 80%)	A (0% ≤ substrate protein remaining % ≤ 80%)	A (0% ≤ substrate protein remaining % ≤ 80%)	A (0% ≤ substrate protein remaining % ≤ 80%)	B (80%< substrate protein remaining %≤ 100%)
Cn1cc(C2CCN(Cc3ccc4c(c3)C(=O)N(N3CCC(=O)NC3=O)C4=O)CC2)c2ccc(F)cc21 [GT-07581, 2-(2,4-dioxotetrahydropyrimidin-1(2H)-yl)-5-((4-(6-fluoro-1-methyl-1H-indol-3-yl)piperidin-1-yl)methyl)isoindoline-1,3-dione]	A (0% ≤ substrate protein remaining % ≤ 80%)	A (0% ≤ substrate protein remaining % ≤ 80%)	A (0% ≤ substrate protein remaining % ≤ 80%)	A (0% ≤ substrate protein remaining % ≤ 80%)	B (80%< substrate protein remaining %≤ 100%)	B (80%< substrate protein remaining %≤ 100%)
O=C1CCN(N2C(=O)c3ccc(CN4CCC(c5c[nH]c6ncccc56)CC4)cc3C2=O)C(=O)N1 [GT-07582, 5-((4-(1H-pyrrolo[2,3-b]pyridin-3-yl)piperidin-1-yl)methyl)-2-(2,4-dioxotetrahydropyrimidin-1(2H)-yl)isoindoline-1,3-dione]	A (0% ≤ substrate protein remaining % ≤ 80%)	A (0% ≤ substrate protein remaining % ≤ 80%)	A (0% ≤ substrate protein remaining % ≤ 80%)	A (0% ≤ substrate protein remaining % ≤ 80%)	B (80%< substrate protein remaining %≤ 100%)	B (80%< substrate protein remaining %≤ 100%)
O=C1CCN(N2C(=O)c3ccc(CN4CCC(n5c(=O)[nH]c6cc(F)ccc65)CC4)cc3C2=O)C(=O)N1 [GT-07583, 2-(2,4-dioxotetrahydropyrimidin-1(2H)-yl)-5-((4-(5-fluoro-2-oxo-2,3-dihydro-1H-benzo[d]imidazol-1-yl)piperidin-1-yl)methyl)isoindoline-1,3-dione]	B (80%< substrate protein remaining %≤ 100%)	B (80%< substrate protein remaining %≤ 100%)	A (0% ≤ substrate protein remaining % ≤ 80%)	A (0% ≤ substrate protein remaining % ≤ 80%)	B (80%< substrate protein remaining %≤ 100%)	B (80%< substrate protein remaining %≤ 100%)
O=C1CCN(N2Cc3cc(CN4CCC(N5CCCc6cc(F)ccc65)CC4)ccc3C2=O)C(=O)N1 [GT-07584, 1-(5-((4-(6-fluoro-3,4-dihydroquinolin-1(2H)-yl)piperidin-1-yl)methyl)-1-oxoisoindolin-2-yl)dihydropyrimidine-2,4(1H,3H)-dione]	A (0% ≤ substrate protein remaining % ≤ 80%)	B (80%< substrate protein remaining %≤ 100%)	A (0% ≤ substrate protein remaining % ≤ 80%)	A (0% ≤ substrate protein remaining % ≤ 80%)	B (80%< substrate protein remaining %≤ 100%)	B (80%< substrate protein remaining %≤ 100%)
O=C1CCN(N2Cc3cc(CN4CCC(N5CCOc6cc(F)ccc65)CC4)ccc3C2=O)C(=O)N1 [GT-07585, 1-(5-((4-(7-fluoro-2,3-dihydro-4H-benzo[b][1,4]oxazin-4-yl)piperidin-1-yl)methyl)-1-oxoisoindolin-2-yl)dihydropyrimidine-2,4(1H,3H)-dione]	A (0% ≤ substrate protein remaining % ≤ 80%)	B (80%< substrate protein remaining %≤ 100%)	A (0% ≤ substrate protein remaining % ≤ 80%)	A (0% ≤ substrate protein remaining % ≤ 80%)	B (80%< substrate protein remaining %≤ 100%)	B (80%< substrate protein remaining %≤ 100%)

Source: patent publication EP4722207A1, “OXOISOINDOLINYL-SUBSTITUTED TETRAHYDROPYRIMIDINEDIONE DERIVATIVE AND USE THEREOF” (Gluetacs Therapeutics (Shanghai) Co., Ltd., priority 2023, dated 2024)
